Where two headings read alike, the source gives them in different places. Blank lines part the entries; values can stand above or below the molecule they belong to. Bridge positions count the residues as written; N and C are the ends. Square brackets hold non-standard residues; d marks the D form. Peptide text beside a SMILES is read from it. * marks the point of attachment. ξ: configuration not given here. Camptothecin(20S-OCO) = CC[C@@]1(OC(=O)*)C(=O)OCc2c1cc1n(c2=O)Cc2cc3ccccc3nc2-1; FITC = O=C1OC2(c3ccc(O)cc3Oc3cc(O)ccc32)c2ccc(NC(=S)*)cc21; ξThr(3R) = C[C@@H](O)C(N)C(=O)O; Abu = CC[C@H](N)C(=O)O; GABA = NCCCC(=O)O
Experiments:
[1] = test system: H1299, DKMG and K562 cells; test: Flow cytometry binding of peptide-FITC conjugates; assay type: cell-based; conditions: 2.5 μM FITC-labeled peptide
Protocol: Cells with 80-90% confluence were incubated with 2.5 μM FITC-conjugated peptides in RPMI-5% FBS for 1 h at 37° C. Cells were scrapped from the culture flask and washed twice with 2 ml FCSB.
This concentration was chosen based on preliminary dose dependence study.

[2] = test system: EGFR+ve cells (H1299, DKMG) versus K562 cells; test: Flow cytometry internalization of peptide-FITC conjugates; assay type: cell-based; conditions: 2.5 μM FITC-labeled peptide
Source text: Analysis was done with FACS cell analyzer.

[3] = test system: H1299 tumor (EGFR positive) versus K562 tumor (EGFR negative); test: In vivo targeting in mice with dual H1299 and K562 xenografts; conditions: nude mice, tail vein, 100 μg
Protocol: Animal protocols were approved by the Institutional Animal Care and Use Committee at Ariel university Israel. Nude mice were injected with either H1299 cells in the right flank and with K562 cells in the left flank, so that each mouse bore either dual H1299 and K562 xenografts. When tumors reached, 100 mm^3 mice were injected via tail vein with 100 μg of FITC-labeled cyclic peptide, according to some embodiments of the present invention, and imaged using IVIS® SpectrumCT 8- and 24-hours post injection. Immediately afterwards, the mice were sacrificed for ex vivo imaging of organs.
Signal from the targeted tumor compared to other tissues was determined for each animal.

[4] = test system: H1299 cells; test: XTT cytotoxicity assay on H1299 cells; assay type: cell-based
Protocol: (§1) Cell growth in the presence of PDCs was measured by a commercial XTT assay kit (Cell Proliferation Kit, XTT based; Biological Industries, Israel). The cells (10^4 cells/well) were seeded in 96 well plates and incubated overnight in complete growth medium. The cells were washed and then cultured in 100 μl of new medium containing various concentrations of drug or peptides, for 24 h, 48 h, and 72 h. The XTT solution was added to each well and the plate was further incubated 2-3 h at 37° C. The optical density in the wells was measured at both 480 nm and 680 nm using a TECAN Infinite M200 ELISA reader. All the tests were done in triplicates, and each experiment was repeated three times.
(§2) The cytotoxicity of the Peptide-Drug conjugates (PDCs) was tested in a range of concentrations (0.5-50 μM) against H1299 and DKMG cells using two protocols. In the first protocol, cells were pre-incubated with P6, P9, P6-CPT, and P9-CPT for 6 hours, the medium was removed, and a fresh, drug-free complete medium was added for additional 24 h (designated as 6h24h) or 48 h (6h48h). In the second protocol, cells were exposed continuously to PDCs for 24 h, 48 h, and 72 hours.

[5] = Stability of peptide-drug conjugates in complete growth medium (LC-MS); assay type: in vitro ADME; conditions: RPMI and DMEM complete growth medium, 37° C., read-out: half-life of degradation
Protocol: At each time point, 10 μl of sample was taken and mixed with 25 μl ACN/H2O (1:1, v.v.). The samples were centrifuged at 1,400 rpm for 15 min. Supernatants were collected, filtered and analyzed by liquid chromatography mass spectrometry (LC-MS).
The stability of P6-CPT and P9-CPT was measured in RPMI and DMEM complete growth medium at 37° C. for 0 h, 0.5 h, 3 h, 7 h, 24 h, 48, and 72 h. The degradation of the conjugates and the CPT release was analyzed by LC-MS. The stability of these conjugates and drug release rates were similar.

[6] = test system: DKMG cells; test: XTT cytotoxicity assay on DKMG cells; assay type: cell-based
Protocol: as §1, §2

[7] = test system: H1299, H1975 and DKMG cells; test: Phage display biopanning with NGS, selection of EGFR-specific peptides; assay type: cell-based; conditions: 3 rounds of biopanning, K562-derived sequences excluded
Protocol: A heptapeptide phage display library (Ph.D.-C7C Phage Display Library Kit, New England Biolabs, USA) was used for the in vitro biopanning experiments. All cell lines were individually incubated with phages from the stock library. […] Adherent cells (H1299, […] and DKMG) were plated at a density of 10^5 cells/ml in a 6-well plate. When the culture reached 80% confluence, the first well was incubated with phage library (10^11 pfu/10 μl) for 1 h at 37° C. with gentle stirring. The medium containing unbound phage was collected and transferred to the second, similar well and incubated again. The procedure was repeated with the third well. Cells in the third wells were washed four times with 0.5% Tween-20 in PBS. Then, 0.5 ml of elution buffer (0.2 M glycine-HCl, pH 2.2) was added and incubated for 10 min at 4° C.; the pH was neutralized by addition of 75 μl of 1 M Tris-HCl buffer, pH 9.0. The supernatant containing cell surface binding phage was collected. The cells were then lysed by incubation for 1 h at 4° C. with 2 ml of 30 mM Tris-HCl and 1 mM EDTA, pH 8.0. The medium was collected and centrifuged at 1,500 rpm for 5 min and the supernatant containing cell-internalized phage was transferred to a new tube. The internalized and surface-bound phages were amplified according to the manufacturer's instructions. An aliquot of the phages was retained for sequencing (see below) and the remainder was subjected to two additional rounds of biopanning. […]
Finally, two groups of peptides were constructed; the first included sequences that were present in all three EGFR+ve cell lines and included about 416 sequences; the second was divided into three subgroups, one for each cell line, wherein the subgroup for H1299 included some 1666 sequences, the subgroup for H1975 included some 10437 sequences, the subgroup for DKMG included some 981 sequences. From this list, top eleven S—S bridged cyclic peptides sequences were selected by their count in the sequencing data (the highest number of reads). […]

[8] = target: T1, epidermal growth factor receptor (EGFR), wild type (human, UniProt P00533 25-1210); test: confocal microscopy, 25 uM FITC-peptide, 3 h, H1299 cells
T1 construct: whole, on cells; The target is inferred from tumour cell lines that overexpress EGFR, compared with EGFR-negative cells; No purified receptor was used; also called EGFRWT; EGFR WT

[9] = target: T2, EGFR variant III (EGFRvIII), on DKMG glioblastoma cells (human, UniProt P00533 25-1210); test: flow cytometry, 2.5 uM FITC-peptide on DKMG cells (EGFR WT and EGFRvIII)
T2 construct: whole, on cells; DKMG cells express both wild type EGFR (92% of cells) and EGFRvIII (82%); All results on DKMG cells are written against this molecule; also called EGFR mutant; EGFRVIII DKMG

[10] = H1299, 6 w 48 h (6 h pre-incubation, then 48 h drug-free medium)
[11] = H1299, 24 h continuous exposure
[12] = H1299, 48 h continuous exposure
[13] = H1299, first protocol (6 h pre-incubation), up to 48 h
[14] = H1299, second protocol, continuous exposure
[15] = H1299, 72 h continuous exposure

Molecule: C[C@@H]1NC(=O)[C@@H](NC(=O)CCCNC(=S)Nc2ccc3c(c2)C(=O)OC32c3ccc(O)cc3Oc3cc(O)ccc32)CSSC[C@@H](C(N)=O)NC(=O)[C@H](CCCNC(=N)N)NC(=O)CNC(=O)[C@@H]2CCCN2C(=O)[C@H]([C@@H](C)O)NC(=O)[C@H](Cc2ccc(O)cc2)NC(=O)[C@H](CCC(N)=O)NC1=O [FITC-labeled P11] ({FITC-GABA}-CAQYTPGRC-NH2; disulfide 1-9)
binding (flow cytometry) [1]: bind to H1299 and DKMG selectively but not to K562 cells
internalization (flow cytometry) [2]: internalized only into to EGFR+ve cells
accumulation in other organs ([3]; ex vivo imaging of organs): No significant accumulation
tumor accumulation ([3]; imaging 8 and 24 hours post injection): accumulates in the H1299 tumor compared to the K562 tumor

Molecule: CC[C@H](C)[C@@H]1NC(=O)[C@H](Cc2ccc(O)cc2)NC(=O)[C@H](CO)NC(=O)CNC(=O)[C@@H]2CCCN2C(=O)[C@H](C(C)C)NC(=O)[C@H](Cc2cnc[nH]2)NC(=O)[C@@H](NC(=O)CCCNC(=O)O[C@]2(CC)C(=O)OCc3c2cc2n(c3=O)Cc3cc4ccccc4nc3-2)CSSC[C@@H](C(N)=O)NC1=O [Peptide P6-CPT] ({Camptothecin(20S-OCO)-GABA}-CHVPGSYIC-NH2; disulfide 1-9)
IC50 [4, 10]: 32 µM
IC50 [4, 11]: 14.5 µM
IC50 [4, 12]: 5.5 µM
cytotoxicity [4, 13]: exhibited cytotoxic effect after 48 h
cytotoxicity [4, 14]: observed after 24 hours post exposure
half-life [5]: 360 to 420 min

Molecule: CC[C@@H]1NC(=O)[C@@H](NC(=O)CCCNC(=O)O[C@]2(CC)C(=O)OCc3c2cc2n(c3=O)Cc3cc4ccccc4nc3-2)CSSC[C@@H](C(N)=O)NC(=O)[C@H](Cc2ccc(O)cc2)NC(=O)[C@H](CO)NC(=O)[C@H](CCC(N)=O)NC(=O)[C@H](CCSC)NC(=O)[C@H](C)NC(=O)[C@H](CC(N)=O)NC1=O [Peptide P9-CPT] ({Camptothecin(20S-OCO)-GABA}-C[Abu]NAMQSYC-NH2; disulfide 1-9)
IC50 [4, 10]: 21.5 ± 2.1 µM
IC50 [4, 11]: 8.4 ± 0.5 µM
IC50 [4, 12]: 2.2 ± 0.3 µM
IC50 [4, 15]: 1.2 ± 0.1 µM
cytotoxicity [4, 13]: exhibited cytotoxic effect after 48 h
cytotoxicity [4, 14]: observed after 24 hours post exposure
IC50 ([6]; 6 w 48 h (6 h pre-incubation, then 48 h drug-free medium)): 32 ± 1.6 µM
IC50 ([6]; 24 h continuous exposure): 6.76 µM
IC50 ([6]; 48 h continuous exposure): 2.7 ± 1 µM
IC50 ([6]; 72 h continuous exposure): 0.2 ± 0.1 µM
cytotoxic effect ([6]; first protocol): noted after 48 hours
IC50 concentration higher compared to the free CPT ([6]; first protocol, 48 hours): 4 fold
half-life [5]: 360 to 420 min

Molecule: CSCC[C@@H]1NC(=O)[C@H](C)NC(=O)[C@H](CC(N)=O)NC(=O)[C@H](C(C)C)NC(=O)[C@@H](N)CSSC[C@@H](C(N)=O)NC(=O)[C@H](Cc2ccc(O)cc2)NC(=O)[C@H](CO)NC(=O)[C@H](CCC(N)=O)NC1=O [Peptide P9] (H-CVNAMQSYC-NH2; disulfide 1-9)
cytotoxicity [4]: did not demonstrate cytotoxicity
IC50 [4, 11]: 22.3 ± 0.2 µM
IC50 [4, 12]: 27.3 ± 1.7 µM
IC50 [4, 15]: 22.5 µM
IC50 ([6]; 24 h continuous exposure): 16.4 ± 1.9 µM
IC50 ([6]; 48 h continuous exposure): 17.5 ± 2.3 µM
IC50 ([6]; 72 h continuous exposure): 17.5 ± 1.6 µM
Cell line (peptide specificity per cell line; source of the cells from which the peptide was identified) [7]: DKMG

Molecule: CC(C)C[C@@H]1NC(=O)[C@H](Cc2c[nH]c3ccccc23)NC(=O)[C@H](CC(N)=O)NC(=O)[C@@H](N)CSSC[C@@H](C(N)=O)NC(=O)[C@H](CCC(=O)O)NC(=O)C([C@@H](C)O)NC(=O)[C@H](CCCNC(=N)N)NC(=O)[C@H](CO)NC1=O (stereo partly drawn) [Peptide P10] (H-CNWLSR[ξThr(3R)]EC-NH2; disulfide 1-9)
Cell line (peptide specificity per cell line; source of the cells from which the peptide was identified) [7]: DKMG

Molecule: C[C@@H]1NC(=O)[C@@H](N)CSSC[C@@H](C(N)=O)NC(=O)[C@H](CCCNC(=N)N)NC(=O)CNC(=O)[C@@H]2CCCN2C(=O)[C@H]([C@@H](C)O)NC(=O)[C@H](Cc2ccc(O)cc2)NC(=O)[C@H](CCC(N)=O)NC1=O [Peptide P11] (H-CAQYTPGRC-NH2; disulfide 1-9)
Cell line (peptide specificity per cell line; source of the cells from which the peptide was identified) [7]: DKMG

binding result [8]: binds
binding result [9]: binds
B1: FITC-labeled cyclic peptide P6, c(CHVPGSYIC) (peptide)
peptide: {FITC-GABA}-CHVPGSYIC-NH2
modifications: disulfide 1-9
SMILES: CC[C@H](C)[C@@H]1NC(=O)[C@H](Cc2ccc(O)cc2)NC(=O)[C@H](CO)NC(=O)CNC(=O)[C@@H]2CCCN2C(=O)[C@H](C(C)C)NC(=O)[C@H](Cc2c[nH]cn2)NC(=O)[C@@H](NC(=O)CCCNC(=S)Nc2ccc3c(c2)C(=O)OC32c3ccc(O)cc3Oc3cc(O)ccc32)CSSC[C@@H](C(N)=O)NC1=O
notes: also called FITC-P6; P6-FITC conjugate

Reference: patent US20250346634A1, “CYCLIC PEPTIDES FOR TARGETING EPIDERMAL GROWTH FACTOR RECEPTOR AND MUTATIONS THEREOF FOR DRUG DELIVERY” (priority 2022, published 2025)
